Earlier results, collected in PubChem BioAssay AID1259409 (Chemical Carcinogenesis Research Information System (CCRIS), 2018).

Tested on: rodent chemically induced tumor inhibition, incidence and multiplicity
Assay: CCRIS tumor inhibitor studies

CC1=C(/C=C/C(C)=C/C=C/C(C)=C/C(=O)O)C(C)(C)CCC1
tumour outcome (control, treated, inhibition, significance) (Carcinogen: 7,12-DIMETHYLBENZ[A]ANTHRACENE, 57-97-6, Dose [Inhibitor]: 68 NMOL IN 0.2 ML ACETONE ONCE 1 HR BEFORE APPLICATION OF CARCINOGEN (STUDY DURATION: 21 WK), Route [Inhibitor]: DERMAL, Species: MOUSE, Strain/Sex: CD-1/FEMALE, Target Tissue: Type of Lesion: SKIN: PAPILLOMA, Dose [Carcinogen]: 0.2 UMOL IN 0.2 ML ACETONE ONCE, Promoter: 12-O-TETRADECANOYLPHORBOL-13-ACETATE, 16561-29-8): 95%, 92%, 3%, not significant | tumour outcome (control, treated, inhibition, significance) (Carcinogen: 7,12-DIMETHYLBENZ[A]ANTHRACENE, 57-97-6, Dose [Inhibitor]: 170 NMOL IN 0.2 ML ACETONE 1 HR PRIOR TO EACH PROMOTER DOSE FOR 12 WK (STUDY DURATION: 14 WK), Route [Inhibitor]: DERMAL, Species: MOUSE, Strain/Sex: SENCAR/FEMALE, Target Tissue: Type of Lesion: SKIN: PAPILLOMA, Dose [Carcinogen]: 200 NMOL IN 0.2 ML ACETONE ONCE, Promoter: 12-O-TETRADECANOYLPHORBOL-13-ACETATE, 16561-29-8): 100%, 87%, 13%, not calculated | tumour outcome (control, treated, inhibition, significance) (Carcinogen: 7,12-DIMETHYLBENZ[A]ANTHRACENE, 57-97-6, Dose [Inhibitor]: 170 NMOL IN 0.2 ML ACETONE 1 HR PRIOR TO EACH PROMOTER DOSE FOR 20 WK (STUDY DURATION: 22 WK), Route [Inhibitor]: DERMAL, Species: MOUSE, Strain/Sex: CD-1/FEMALE, Target Tissue: Type of Lesion: SKIN: PAPILLOMA, Dose [Carcinogen]: 200 NMOL IN 0.2 ML ACETONE ONCE, Promoter: 12-O-TETRADECANOYLPHORBOL-13-ACETATE, 16561-29-8): 94%, 63%, 33%, not calculated | tumour outcome (control, treated, inhibition, significance) (Carcinogen: DIETHYLNITROSAMINE, 55-18-5, Dose [Inhibitor]: 0, 10000 IU/KG IN CORN OIL FOR DURATION OF STUDY BEGINNING 7 D PRIOR TO FIRST CARCINOGEN DOSE (STUDY DURATION: 6 MO), Route [Inhibitor]: GAVAGE, Species: RAT, Strain/Sex: BD6/FEMALE, Target Tissue: Type of Lesion: ESOPHAGUS: TUMOR, Dose [Carcinogen]: 80 MG/KG BW 1/WK FOR 8 WK, Promoter: NONE USED): 20%, 13%, 35%, not significant | tumour outcome (control, treated, inhibition, significance) (Carcinogen: DIETHYLNITROSAMINE, 55-18-5, Dose [Inhibitor]: 0, 10000 IU/KG IN CORN OIL FOR DURATION OF STUDY BEGINNING 7 D PRIOR TO FIRST CARCINOGEN DOSE (STUDY DURATION: 6 MO), Route [Inhibitor]: GAVAGE, Species: RAT, Strain/Sex: BD6/FEMALE, Target Tissue: Type of Lesion: LIVER: TUMOR, Dose [Carcinogen]: 80 MG/KG BW 1/WK FOR 8 WK, Promoter: NONE USED): 83%, 91%, -10%, not significant | tumour outcome (control, treated, inhibition, significance) (Carcinogen: DIETHYLNITROSAMINE, 55-18-5, Dose [Inhibitor]: 0, 20000 IU/KG IN CORN OIL FOR DURATION OF STUDY BEGINNING 7 D PRIOR TO FIRST CARCINOGEN DOSE (STUDY DURATION: 6 MO), Route [Inhibitor]: GAVAGE, Species: RAT, Strain/Sex: BD6/FEMALE, Target Tissue: Type of Lesion: ESOPHAGUS: TUMOR, Dose [Carcinogen]: 80 MG/KG BW 1/WK FOR 8 WK, Promoter: NONE USED): 30%, 13%, 57%, not significant | tumour outcome (control, treated, inhibition, significance) (Carcinogen: DIETHYLNITROSAMINE, 55-18-5, Dose [Inhibitor]: 0, 20000 IU/KG IN CORN OIL FOR DURATION OF STUDY BEGINNING 7 D PRIOR TO FIRST CARCINOGEN DOSE (STUDY DURATION: 6 MO), Route [Inhibitor]: GAVAGE, Species: RAT, Strain/Sex: BD6/FEMALE, Target Tissue: Type of Lesion: LIVER: TUMOR, Dose [Carcinogen]: 80 MG/KG BW 1/WK FOR 8 WK, Promoter: NONE USED): 85%, 93%, -9%, not significant | tumour outcome (control, treated, inhibition, significance) (Carcinogen: N-METHYL-N'-NITRO-N-NITROSOGUANIDINE, 70-25-7, Dose [Inhibitor]: 0, 0.75 MG/KG BW 1/2 D FOR 26 WK BEGINNING POST CARCINOGEN TREATMENT (STUDY DURATION: 52 WK), Route [Inhibitor]: SUBCUTANEOUS, Species: RAT, Strain/Sex: WISTAR/MALE, Target Tissue: Type of Lesion: STOMACH: ADENOCARCINOMA, Dose [Carcinogen]: 25 UG/ML IN DRINKING WATER FOR 25 WK, Promoter: SODIUM CHLORIDE, 7647-14-5): 17/20 (85%), 8/20 (40%), 53% p<0.01 | tumour outcome (control, treated, inhibition, significance) (Carcinogen: N-METHYL-N'-NITRO-N-NITROSOGUANIDINE, 70-25-7, Dose [Inhibitor]: 0, 1.5 MG/KG BW 1/2 D FOR 26 WK BEGINNING POST CARCINOGEN TREATMENT (STUDY DURATION: 52 WK), Route [Inhibitor]: SUBCUTANEOUS, Species: RAT, Strain/Sex: WISTAR/MALE, Target Tissue: Type of Lesion: STOMACH: ADENOCARCINOMA, Dose [Carcinogen]: 25 UG/ML IN DRINKING WATER FOR 25 WK, Promoter: SODIUM CHLORIDE, 7647-14-5): 17/20 (85%), 7/20 (35%), 59%, p<0.01 | tumour outcome (control, treated, inhibition, significance) (Carcinogen: N-NITROSO-N-METHYLUREA, 684-93-5, Dose [Inhibitor]: 0, 60 MG/KG OF DIET FOR 3 MO BEGINNING 1 WK POST CARCINOGEN DOSE (STUDY DURATION: 100 D), Route [Inhibitor]: ORAL, Species: RAT, Strain/Sex: SPRAGUE-DAWLEY/FEMALE, Target Tissue: Type of Lesion: MAMMARY GLAND: TUMOR, Dose [Carcinogen]: 50 MG/KG BW ONCE, Promoter: NONE USED): 100%, 92%, 8%, not significant | tumour outcome (control, treated, inhibition, significance) (Carcinogen: N-NITROSO-N-METHYLUREA, 684-93-5, Dose [Inhibitor]: 0, 120 MG/KG OF DIET FOR 13 MO BEGINNING 1 WK POST CARCINOGEN DOSE (STUDY DURATION: 100 D), Route [Inhibitor]: ORAL, Species: RAT, Strain/Sex: SPRAGUE-DAWLEY/FEMALE, Target Tissue: Type of Lesion: MAMMARY GLAND: TUMOR, Dose [Carcinogen]: 50 MG/KG BW ONCE, Promoter: NONE USED): 100%, 83%, 17%, not significant
